According to patent US9181260B2, “Crystalline form of sitagliptin sulfate” (MOEHS IBERICA S.L., priority 2012, dated 2015):
Structures can show the parent of a compound that is named as a salt. Where two headings read alike, the source gives them in different places.

Key:
Assay type in all cases: physicochemical
[1] = Hygroscopicity study, European Pharmacopeia Ed. 6.0 Section 5.11 (degree of hydration at 80% and 97% RH, 25° C.); conditions: for Higroscopicity RH 80% / Higroscopicity RH 97%: water content by weight difference
Experimental: International application WO 2009/085990 A2 describes the production of an anhydrous crystalline form of sitagliptin sulfate salt and its characterization by means of DSC (Differential Scanning calorimetry), TGA (Thermal Gravimetric Analysis) and XRPD (X-Ray Powder Diffraction). However and in the hands of the inventors of the present application, said crystalline form is hygroscopic under the conditions of the European Pharmacopeia Ed. 6.0 Section 5.11 (24 hours at 80% RH and 25° C.), readily reaching a water proportion corresponding to a dihydrate form. […] A stability study of the M form of sitagliptin sulfate was performed under conditions of the European Pharmacopeia Ed. 6.0 Section 5.11, i.e., the degree of hydration was measured at 80% relative humidity (RH) at a temperature of 25° C. Additionally, the degree of hydration was also measured at 97% relative humidity (RH) at a temperature of 25° C. The results are shown in Table 1, wherein the higroscopicity (expressed as the water content by means of weight difference, following the procedure described in European Pharmacopeia Ed. 6.0 Section 5.11) of samples of 1 g of sitagliptin sulfate polymorph M of the present invention after storage at 1 day, 3 days, 7 days, 14 days and 21 days at 80% RH and 97% RH, respectively. […] 6.0 Section 5.11, i.e., the degree of hydration is less than 0.2%. The crystalline form of sitagliptin sulfate after 21 days at a relative humidity of 80% and 97%, respectively, were analyzed by means of X-ray diffraction.

[2] = Accelerated stability study (40° C.±2° C., 75%±5% RH), water content by Karl-Fisher and XRPD; conditions: for Water content: Karl-Fisher
Experimental: Water Content (Karl-Fisher Method) The analysis is performed in a Mettler Toledo W30. It is determined in 0.2 g of sample using Hydranal medium K as solvent and Hydranal composite 5K as titrant. Accelerated stability study of the M form of sitagliptin sulfate was performed under the following conditions: temperature of 40° C.±2° C. and relative humidity (RH) of 75%±5%. The water content of the sample was determined at the beginning of the study, at 3 months and at 6 months, by means of Karl-Fisher. The crystalline form of sitagliptin sulfate after 6 months was analyzed by means of X-ray diffraction.

[3] = Water content determined by thermal gravimetric analysis (TGA)
Experimental: TGA analyses were performed using a Mettler/Toledo TGA/SDTA851e thermobalance. Parameters: heating range from 30 to 300° C. with a 10° C./min ramp and a 50 ml/min dry N2 flow.

[4] = Crystalline form after grinding
Experimental: 100.0 g (245.5 mmoles) of sitagliptin base were dissolved at 20-22° C. in a mixture of 750 ml of absolute ethanol and 120 ml of water. A previously prepared solution of 98.1% H2SO4 ([…], 240.9 mmoles) in ethanol (760 ml) was slowly added to said solution, maintaining the temperature between 20-25° C. When approximately ⅔ of the total volume of the acid solution had been added, the addition was stopped and 1.0 g (1.978 mmoles) of crystalline form M of sitagliptin sulfate obtained by means of any of the processes described in Examples 1 and 3-5 was added to the reaction mixture. The presence of a white precipitate that remains undissolved was immediately noticed. The addition of the acid solution was continued and once this ended, the mixture obtained was maintained at a temperature of 20-25° C. for 4 hours. The solid obtained was filtered and washed in the filter with absolute ethanol (2×100 ml). The wet product was dried in a vacuum oven at 40° C. for 22 hours to yield 97.1 g (192.1 mmoles) of a white crystalline solid (77.6%). XRPDs both of the wet product (FIG. 3) and of the dry product (FIG. 2) which correspond with form M of sitagliptin sulfate were performed. […] (FIG. 8). The water content determined by TGA (FIG. 13) is 0.02%.

[5] = 80% RH and 97% RH, 25° C., up to 21 days

N[C@@H](CC(=O)N1CCn2c(nnc2C(F)(F)F)C1)Cc1cc(F)c(F)cc1F [form M, addition salt of sitagliptin with sulfuric acid (1:1)]
Higroscopicity RH 80% ([1]; 25° C., 80% RH, 1 day): 0.07%
Higroscopicity RH 80% ([1]; 25° C., 80% RH, 3 days): 0.10%
Higroscopicity RH 80% ([1]; 25° C., 80% RH, 7 days): 0.12%
Higroscopicity RH 80% ([1]; 25° C., 80% RH, 14 days): 0.10%
Higroscopicity RH 80% ([1]; 25° C., 80% RH, 21 days): 0.07%
Higroscopicity RH 97% ([1]; 25° C., 97% RH, 1 day): 0.05%
Higroscopicity RH 97% ([1]; 25° C., 97% RH, 3 days): 0.08%
Higroscopicity RH 97% ([1]; 25° C., 97% RH, 7 days): 0.06%
Higroscopicity RH 97% ([1]; 25° C., 97% RH, 14 days): 0.06%
Higroscopicity RH 97% ([1]; 25° C., 97% RH, 21 days): 0.07%
degree of hydration [1, 5]: less than 0.2%
hygroscopicity (in words) [1, 5]: non-hygroscopic
degree of hydration ([1]; 80% relative humidity, 25° C.): less than 0.2%
hygroscopicity (in words) ([1]; 80% relative humidity, 25° C., Ph. Eur. 6.0 Section 5.11): non-hygroscopic
crystalline form by XRPD after storage ([1]; 21 days, 25° C., 80% RH): corresponding to form M of sitagliptin sulfate
crystalline form by XRPD after storage ([1]; 21 days, 25° C., 97% RH): corresponding to form M of sitagliptin sulfate
Water content ([2]; 3 months at 40° C.±2° C., 75%±5% RH): 0.09%
Water content ([2]; 6 months at 40° C.±2° C., 75%±5% RH): 0.01%
crystalline form by XRPD after storage ([2]; 6 months, 40° C.±2° C., 75%±5% RH): corresponding to form M of sitagliptin sulfate
Water content ([2]; Initial): 0.09%
water content determined by TGA [3]: less than 0.05%
water content determined by TGA ([3]; listed as Example 1): 0.02%
water content determined by TGA ([3]; listed as Example 2): 0.02%
water content determined by TGA ([3]; listed as Example 3): 0.03%
water content determined by TGA ([3]; listed as Example 4): 0.01%
water content determined by TGA ([3]; listed as Example 5): 0.004%
crystalline form of the ground product [4]: still the crystalline form of sitagliptin sulfate object of the present invention

N[C@@H](CC(=O)N1CCn2c(nnc2C(F)(F)F)C1)Cc1cc(F)c(F)cc1F.O=S(=O)(O)O [reference compound]
hygroscopicity (in words) ([1]; 24 hours at 80% RH and 25° C., in the hands of the inventors): hygroscopic
